One block for each compound: values may come before it.
Legend:
MDA-MB-231 = assay: Antiproliferative activity against human MDA-MB-231 cells after 48 hrs by MTT assay; type: functional, cell-based; conditions: MDA-MB-231, 48 h
L02 = assay: Antiproliferative activity against human L02 cells after 48 hrs by MTT assay; type: functional, cell-based; conditions: L02, 48 h
A549 = assay: Antiproliferative activity against human A549 cells after 48 hrs by MTT assay; type: functional, cell-based; conditions: A549, 48 h
MCF7 [1] = assay: Antiproliferative activity against human MCF7 cells after 48 hrs by MTT assay; type: functional, cell-based; conditions: MCF7, 48 h
HepG2 = assay: Antiproliferative activity against human HepG2 cells after 48 hrs by MTT assay; type: functional, cell-based; conditions: HepG2, 48 h
NCI/ADR-RES [2] = assay: Antiproliferative activity against human MCF7/ADR cells after 48 hrs by MTT assay; type: functional, cell-based
NCI/ADR-RES [3] = assay: Reversal of multidrug resistant activity in human MCF7/ADR cells after 48 hrs by MTT assay; type: functional, cell-based
MCF7 [4] = assay: Antiproliferative activity against human MCF7 cells assessed as growth inhibition at 3 uM after 48 hrs by MTT assay relative to control; type: functional; conditions: read-out: GI
Calf thymus DNA [5] = assay: Binding affinity to calf thymus DNA assessed as hypochromicity at 20 uM measured by UV-vis absorption spectroscopy; type: nucleic-acid assay; conditions: Bos taurus
Calf thymus DNA [6] = assay: Binding affinity to calf thymus DNA assessed as red shift in absorption spectra at 20 uM by UV-vis absorption spectroscopy; type: nucleic-acid assay; conditions: Bos taurus

SMILES: Cc1cn(CCCCOc2ccc3c4c(nccc24)-c2ccccc2C3=O)cn1
- IC50 (MDA-MB-231): 9.47 µM
- IC50 (L02): 28.2 µM
- IC50 (A549): 9.63 µM
- IC50 (MCF7 [1]): 9.42 µM
- IC50 (HepG2): 11.1 µM
- IC50 (NCI/ADR-RES [2]): 13.6 µM

SMILES: O=C1c2ccccc2-c2nccc3c(OCCCCN4CCOCC4)ccc1c23
- IC50 (MDA-MB-231): 9.43 µM
- IC50 (L02): 22.9 µM
- IC50 (NCI/ADR-RES [3]): 6.12 µM
- IC50 (A549): 9.63 µM
- IC50 (MCF7 [1]): 8.46 µM
- IC50 (HepG2): 10.3 µM
- IC50 (NCI/ADR-RES [2]): 19.3 µM
- inhibition of growth at 3 µM (MCF7 [4]): 17.4%

SMILES: O=C1c2ccccc2-c2nccc3c(OCCCCn4cnc(Br)c4)ccc1c23
- IC50 (MDA-MB-231): 10.2 µM
- IC50 (L02): 32.3 µM
- IC50 (A549): 8.53 µM
- IC50 (MCF7 [1]): 7.95 µM
- IC50 (HepG2): 7.46 µM
- IC50 (NCI/ADR-RES [2]): 12.1 µM

SMILES: COc1ccc(CCN(C)CCCC(C#N)(c2ccc(OC)c(OC)c2)C(C)C)cc1OC (stereo not drawn)
- IC50 (NCI/ADR-RES [3]): 2.83 µM

SMILES: O=C1c2ccccc2-c2nccc3c(OCCN4CCOCC4)ccc1c23
- IC50 (MDA-MB-231): 8.48 µM
- IC50 (L02): > 50 µM
- IC50 (NCI/ADR-RES [3]): 10.1 µM
- IC50 (A549): 6.37 µM
- IC50 (MCF7 [1]): 6.01 µM
- IC50 (HepG2): 8.07 µM
- IC50 (NCI/ADR-RES [2]): 11.2 µM
- inhibition of growth at 3 µM (MCF7 [4]): 8.33%

SMILES: CN1CCN(CCCCOc2ccc3c4c(nccc24)-c2ccccc2C3=O)CC1
- IC50 (MDA-MB-231): 11.1 µM
- IC50 (L02): > 50 µM
- IC50 (NCI/ADR-RES [3]): 1.8 µM
- IC50 (A549): 11.1 µM
- IC50 (MCF7 [1]): 8.67 µM
- IC50 (HepG2): 11.9 µM
- IC50 (NCI/ADR-RES [2]): 13.2 µM
- inhibition of growth at 3 µM (MCF7 [4]): 6.68%

SMILES: O=C1c2ccccc2-c2nccc3c(OCCCn4ccnc4[N+](=O)[O-])ccc1c23
- IC50 (MDA-MB-231): 12 µM
- IC50 (L02): 39.6 µM
- IC50 (A549): 10.3 µM
- IC50 (MCF7 [1]): 10.1 µM
- IC50 (HepG2): 13.1 µM
- IC50 (NCI/ADR-RES [2]): 16.7 µM

SMILES: O=C1c2ccccc2-c2nccc3c(OCCCN4CCOCC4)ccc1c23
- IC50 (MDA-MB-231): 9.52 µM
- IC50 (L02): 32.4 µM
- IC50 (NCI/ADR-RES [3]): 1.81 µM
- IC50 (A549): 9.23 µM
- IC50 (MCF7 [1]): 7.58 µM
- IC50 (HepG2): 10.3 µM
- IC50 (NCI/ADR-RES [2]): 14.6 µM
- inhibition of growth at 3 µM (MCF7 [4]): 3.73%

SMILES: N#Cc1ncn(CCCCOc2ccc3c4c(nccc24)-c2ccccc2C3=O)c1C#N
- IC50 (MDA-MB-231): 7.34 µM
- IC50 (L02): 26.8 µM
- IC50 (A549): 6.17 µM
- IC50 (MCF7 [1]): 10.2 µM
- IC50 (HepG2): 8.42 µM
- IC50 (NCI/ADR-RES [2]): 10.1 µM

SMILES: CC1CCCCN1CCCOc1ccc2c3c(nccc13)-c1ccccc1C2=O (stereo not drawn)
- IC50 (MDA-MB-231): 7.94 µM
- Activity (Calf thymus DNA [5]): 28.5%
- IC50 (L02): 19.5 µM
- IC50 (NCI/ADR-RES [3]): 0.39 µM
- IC50 (A549): 7.48 µM
- OD (Calf thymus DNA [6]): 2 nm
- IC50 (MCF7 [1]): 8.32 µM
- IC50 (HepG2): 6.56 µM
- IC50 (NCI/ADR-RES [2]): 16.2 µM
- inhibition of growth at 3 µM (MCF7 [4]): 19.7%

SMILES: O=C1c2ccccc2-c2nccc3c(OCCCCn4ccnc4[N+](=O)[O-])ccc1c23
- IC50 (MDA-MB-231): 10 µM
- IC50 (L02): 37.3 µM
- IC50 (A549): 10.6 µM
- IC50 (MCF7 [1]): 9.78 µM
- IC50 (HepG2): 10.9 µM
- IC50 (NCI/ADR-RES [2]): 13.5 µM

SMILES: COc1cccc2c1C(=O)c1c(O)c3c(c(O)c1C2=O)C[C@@](O)(C(=O)CO)C[C@@H]3O[C@H]1C[C@H](N)[C@H](O)[C@H](C)O1 [DOXORUBICIN]
- IC50 (L02): 0.18 µM

SMILES: O=C1c2ccccc2-c2nccc3c(OCCCCCn4ccnc4[N+](=O)[O-])ccc1c23
- IC50 (MDA-MB-231): 7.18 µM
- IC50 (L02): 30.2 µM
- IC50 (A549): 6.09 µM
- IC50 (MCF7 [1]): 9.29 µM
- IC50 (HepG2): 8.13 µM
- IC50 (NCI/ADR-RES [2]): 10.2 µM

SMILES: O=C1c2ccccc2-c2nccc3cccc1c23
- IC50 (MDA-MB-231): 32.2 µM
- IC50 (L02): > 50 µM
- IC50 (A549): 26.2 µM
- IC50 (MCF7 [1]): 24 µM
- IC50 (HepG2): 28.2 µM
- IC50 (NCI/ADR-RES [2]): 40.9 µM

Further compounds by falling IC50 (MDA-MB-231), results first:

- IC50 (MDA-MB-231): 12.1 µM
- IC50 (A549): 11.2 µM
- IC50 (MCF7 [1]): 9.35 µM
- IC50 (HepG2): 12 µM
SMILES: Cc1cn(CCCOc2ccc3c4c(nccc24)-c2ccccc2C3=O)cn1
- IC50 (L02): 23.8 µM
- IC50 (NCI/ADR-RES [2]): 17.1 µM

- IC50 (MDA-MB-231): 11.4 µM
- IC50 (A549): 12.2 µM
- IC50 (MCF7 [1]): 9.34 µM
- IC50 (HepG2): 14.3 µM
SMILES: O=C1c2ccccc2-c2nccc3c(OCCCCn4cnc([N+](=O)[O-])c4)ccc1c23
- IC50 (L02): > 50 µM
- IC50 (NCI/ADR-RES [2]): 18.3 µM

- IC50 (MDA-MB-231): 10.5 µM
- IC50 (A549): 10 µM
- IC50 (MCF7 [1]): 7.46 µM
- IC50 (HepG2): 9.67 µM
SMILES: CN1CCN(CCCOc2ccc3c4c(nccc24)-c2ccccc2C3=O)CC1
- IC50 (L02): 25.9 µM
- IC50 (NCI/ADR-RES [3]): 11.4 µM
- IC50 (NCI/ADR-RES [2]): 18.3 µM
- inhibition of growth at 3 µM (MCF7 [4]): 8.89%

- IC50 (MDA-MB-231): 9.33 µM
- IC50 (A549): 7.26 µM
- IC50 (MCF7 [1]): 6.01 µM
- IC50 (HepG2): 8.19 µM
SMILES: CN1CCN(CCOc2ccc3c4c(nccc24)-c2ccccc2C3=O)CC1
- IC50 (L02): 22.4 µM
- IC50 (NCI/ADR-RES [3]): 2.9 µM
- IC50 (NCI/ADR-RES [2]): 13.2 µM
- inhibition of growth at 3 µM (MCF7 [4]): 9.48%

- IC50 (MDA-MB-231): 8.61 µM
- IC50 (A549): 8.95 µM
- IC50 (MCF7 [1]): 6.09 µM
- IC50 (HepG2): 8.12 µM
SMILES: O=C1c2ccccc2-c2nccc3c(OCCCn4cnc(Br)c4)ccc1c23
- IC50 (L02): 36.8 µM
- IC50 (NCI/ADR-RES [2]): 11.2 µM

- IC50 (MDA-MB-231): 8.46 µM
- Activity (Calf thymus DNA [5]): 22%
- IC50 (A549): 8.46 µM
- OD (Calf thymus DNA [6]): 1.6 nm
- IC50 (MCF7 [1]): 9.95 µM
- IC50 (HepG2): 10.1 µM
SMILES: CC1CCCCN1CCCCOc1ccc2c3c(nccc13)-c1ccccc1C2=O (stereo not drawn)
- IC50 (L02): 28.4 µM
- IC50 (NCI/ADR-RES [3]): 1.82 µM
- IC50 (NCI/ADR-RES [2]): 15.2 µM
- inhibition of growth at 3 µM (MCF7 [4]): 3.7%

- IC50 (MDA-MB-231): 8.29 µM
- IC50 (A549): 9.73 µM
- IC50 (MCF7 [1]): 9.03 µM
- IC50 (HepG2): 10.5 µM
SMILES: O=C1c2ccccc2-c2nccc3c(OCCCn4cnc([N+](=O)[O-])c4)ccc1c23
- IC50 (L02): 21.1 µM
- IC50 (NCI/ADR-RES [2]): 18.4 µM

- IC50 (MDA-MB-231): 8.29 µM
- IC50 (A549): 7.36 µM
- IC50 (MCF7 [1]): 10 µM
- IC50 (HepG2): 8.67 µM
SMILES: O=C1c2ccccc2-c2nccc3c(OCCCCCn4cnc([N+](=O)[O-])c4)ccc1c23
- IC50 (L02): 23.8 µM
- IC50 (NCI/ADR-RES [2]): 11.5 µM

- IC50 (MDA-MB-231): 7.39 µM
- IC50 (A549): 5.88 µM
- IC50 (MCF7 [1]): 7.65 µM
- IC50 (HepG2): 7.29 µM
SMILES: N#Cc1ncn(CCCCCOc2ccc3c4c(nccc24)-c2ccccc2C3=O)c1C#N
- IC50 (L02): 31.1 µM
- IC50 (NCI/ADR-RES [2]): 10.1 µM

Reference: ChEMBL document CHEMBL5154818, “Development of oxoisoaporphine derivatives with topoisomerase I inhibition and reversal of multidrug resistance in breast cancer MCF-7/ADR cells” (Eur J Med Chem, 2022)
